Test results from patent US20110009266A1, “Herbicidal Compositions Comprising Pyroxasulfone” (BASF SE, priority 2008, published 2011).
Read-outs that look alike come from different tables or passages of the source.

Key:
Format in all cases: in vivo
[1] = test system: ALOMY (Alopecurus myosuroides, blackgrass); experiment: greenhouse herbicidal activity on Alopecurus myosuroides; settings: Post-Emergence, 20 DAT
Text: (§1) For the post-emergence treatment, the test plants were first grown to a height of 3 to 20 cm, depending on the plant habit, and only then treated. Here, the herbicidal compositions were suspended or emulsified in water as distribution medium and sprayed using finely distributing nozzles.
(§2) The respective herbicides A and/or safener were formulated as 10% by weight strength suspension concentrate and introduced to the spray liquor with the amount of solvent system used for applying the active compound. Herbicide B and/or safener were used as commercially available formulations and introduced to the spray liquor with the amount of solvent system used for applying the active compound. In the examples, the solvent used was water. […]
(§3) The test period extended over 21 days. During this time, the plants were tended, and their response to the treatments with active compound was evaluated. […]
(§4) The value E, which is to be expected if the activity of the individual compounds is just additive, was calculated using the method of S. R. Colby (1967) “Calculating synergistic and antagonistic responses of herbicide combinations”, Weeds 15, p. […]
(§5) If the value observed in this manner is higher than the value E calculated according to Colby, a synergistic effect is present.

[2] = test system: VERPE (Veronica persica, field speedwell); experiment: greenhouse herbicidal activity on Veronica persica; settings: Post-Emergence, 20 DAT
Text: as §1, §2, §3, §4, §5

[3] = test system: LOLMU (Lolium multiflorum, italian ryegrass); experiment: greenhouse herbicidal activity on Lolium multiflorum; settings: Post-Emergence; for inhibition at 13 g/ha / inhibition at 50 g/ha: Lolium multiflorum; for inhibition at 50 g/ha: 50 g ai/ha
Text: as §1
(§6) The respective herbicides A and/or safener were formulated as 10% by weight strength suspension concentrate and introduced to the spray liquor with the amount of solvent system used for applying the active compound. Herbicide B and/or safener were used as commercially available formulations and introduced to the spray liquor with the amount of solvent system used for applying the active compound. In the examples, the solvent used was water.
(§7) Picolinafen was used as a commercial wettable granule formulation having an active ingredient content of 75% by weight.
(§8) 4-(3-trifluoromethylphenoxy)-2-(4-trifluoromethylphenyl)-pyrimidine was used as an aqueous suspension concentrate having an active ingredient concentration of 200 g/l.
(§9) The test period extended over 21 days. During this time, the plants were tended, and their response to the treatments with active compound was evaluated.
(§10) The evaluation for the damage caused by the chemical compositions was carried out using a scale from 0 to 100%, compared to the untreated control plants. Here, 0 means no damage and 100 means complete destruction of the plants.
(§11) The value E, which is to be expected if the activity of the individual compounds is just additive, was calculated using the method of S. R. Colby (1967) “Calculating synergistic and antagonistic responses of herbicide combinations”, Weeds 15, p. 22 ff.
(§12) where X=effect in percent using herbicide A at an application rate a; • Y=effect in percent using herbicide B at an application rate b; • E=expected effect (in %) of A+B at application rates a+b.
as §5

[4] = test system: GALAP (Galium aparine, cleaver); experiment: greenhouse herbicidal activity on Galium aparine; settings: Post-Emergence, 20 DAT
Text: as §1, §6, §8, §9, §10, §11, §12, §5

[5] = test system: PHACA (Phalaris canariensis, canarygrass); experiment: greenhouse herbicidal activity on Phalaris canariensis; settings: Post-Emergence; for inhibition at 50 g/ha / inhibition at 100 g/ha: Phalaris canariensis; for inhibition at 50 g/ha: 50 g ai/ha; for inhibition at 100 g/ha: 100 g ai/ha
Text: as §1, §6, §7, §9, §10, §11, §12, §5

[6] = test system: STEME (Stellaria media, chickweed); experiment: greenhouse herbicidal activity on Stellaria media; settings: Post-Emergence; for inhibition at 50 g/ha: Stellaria media
Text: as §1, §6, §7, §8, §9, §10, §11, §12, §5

[7] = 192 h, 8 DAT, read-out: observed % activity 8 DAT
[8] = 480 h, 20 DAT, read-out: observed % activity 20 DAT

SMILES: Cn1nc(C(F)(F)F)c(CS(=O)(=O)C2=NOC(C)(C)C2)c1OC(F)F [pyroxasulfone, 3-[5-(difluoromethoxy)-1-methyl-3-(trifluoromethyl)pyrazol-4-ylmethylsulfonyl]-4,5-dihydro-5,5-dimethyl-1,2-oxazole]
- observed activity in % destruction 20 days after treatment ([1]; 100 g ai/ha): 90%
- observed activity in % destruction 20 days after treatment ([2]; 25 g ai/ha): 60%
- inhibition at 13 g/ha ([3]; 192 h, 13 g ai/ha, 8 DAT, read-out: observed % activity 8 DAT): 40%
- inhibition at 50 g/ha [3, 7]: 50%
- inhibition at 13 g/ha ([3]; 480 h, 13 g ai/ha, 20 DAT, read-out: observed % activity 20 DAT): 50%
- inhibition at 50 g/ha [3, 8]: 85%
- observed activity in % destruction 20 days after treatment ([3]; 13 g ai/ha, 20 DAT (Table 2)): 50%
- observed activity in % destruction 20 days after treatment ([3]; 25 g ai/ha, 20 DAT (Table 2)): 75%
- observed activity in % destruction 20 days after treatment ([4]; 25 g ai/ha): 90%
- observed activity in % destruction 20 days after treatment ([4]; 50 g ai/ha): 90%
- observed activity in % destruction 20 days after treatment ([4]; 100 g ai/ha): 95%
- inhibition at 50 g/ha [5, 7]: 55%
- inhibition at 100 g/ha [5, 7]: 60%
- inhibition at 50 g/ha [5, 8]: 90%
- inhibition at 100 g/ha [5, 8]: 90%
- observed activity in % destruction 20 days after treatment ([6]; 25 g ai/ha, 20 DAT): 80%
- observed activity in % destruction 20 days after treatment ([6]; 50 g ai/ha, 20 DAT (Table 2)): 85%
- inhibition at 50 g/ha ([6]; 192 h, 50 g ai/ha, 8 DAT, read-out: observed % activity 8 DAT): 70%
- inhibition at 50 g/ha ([6]; 480 h, 50 g ai/ha, 20 DAT, read-out: observed % activity 20 DAT): 85%

SMILES: FC(F)(F)c1ccc(-c2nccc(Oc3cccc(C(F)(F)F)c3)n2)cc1 [Compound B, 4-(3-trifluoromethylphenoxy)-2-(4-trifluoromethylphenyl)-pyrimidine]
- observed activity in % destruction 20 days after treatment ([1]; 16 g ai/ha): 15%
- observed activity in % destruction 20 days after treatment ([2]; 31 g ai/ha): 98%
- observed activity in % destruction 20 days after treatment ([3]; 63 g ai/ha, 20 DAT): 50%
- observed activity in % destruction 20 days after treatment ([3]; 125 g ai/ha, 20 DAT): 70%
- observed activity in % destruction 20 days after treatment ([4]; 31 g ai/ha): 85%
- observed activity in % destruction 20 days after treatment ([4]; 63 g ai/ha): 85%
- observed activity in % destruction 20 days after treatment ([6]; 16 g ai/ha, 20 DAT): 95%
- observed activity in % destruction 20 days after treatment ([6]; 31 g ai/ha, 20 DAT): 95%

SMILES: O=C(Nc1ccc(F)cc1)c1cccc(Oc2cccc(C(F)(F)F)c2)n1 [picolinafen]
- observed % activity 8 DAT ([3]; 25 g ai/ha, 8 DAT): 0%
- observed % activity 20 DAT ([3]; 25 g ai/ha, 20 DAT): 20%
- observed % activity 8 DAT ([5]; 13 g ai/ha, 8 DAT): 10%
- observed % activity 20 DAT ([5]; 13 g ai/ha, 20 DAT): 30%
- observed % activity 8 DAT ([6]; 13 g ai/ha, 8 DAT): 60%
- observed % activity 20 DAT ([6]; 13 g ai/ha, 20 DAT): 90%
